19 compounds from US20250136606A1, “MODULATORS OF TRPML, THEIR COMPOSITIONS AND METHODS OF USE” (Caraway Therapeutics, Inc., priority 2021, published 2025) can be followed below.

Read-outs that look alike come from different tables or passages of the source. A value given as a limit tells only on which side of the number the result lay.

Holding throughout (type): cell-based
One assay addresses T1, TRPML2 (Homo sapiens, UniProt Q8IZK6).
T1 construct: expressed in transfected cells
T1 sequence (Q8IZK6 1-566): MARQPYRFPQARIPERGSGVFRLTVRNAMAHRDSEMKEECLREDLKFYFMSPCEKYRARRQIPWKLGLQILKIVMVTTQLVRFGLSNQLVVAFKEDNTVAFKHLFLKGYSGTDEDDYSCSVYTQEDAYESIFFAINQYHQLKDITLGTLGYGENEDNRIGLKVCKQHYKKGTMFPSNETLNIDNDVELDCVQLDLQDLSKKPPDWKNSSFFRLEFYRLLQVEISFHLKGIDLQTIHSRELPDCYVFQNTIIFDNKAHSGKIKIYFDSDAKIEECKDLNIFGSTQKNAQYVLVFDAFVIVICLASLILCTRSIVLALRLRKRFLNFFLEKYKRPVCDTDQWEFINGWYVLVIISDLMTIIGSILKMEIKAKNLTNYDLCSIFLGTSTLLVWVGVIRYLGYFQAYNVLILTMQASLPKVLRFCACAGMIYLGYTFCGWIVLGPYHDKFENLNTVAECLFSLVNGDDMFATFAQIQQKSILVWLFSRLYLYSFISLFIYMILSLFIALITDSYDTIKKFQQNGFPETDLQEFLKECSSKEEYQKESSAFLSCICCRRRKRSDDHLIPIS
Nature of the assay: Fluorescent TRPML2 assay (performed as for TRPML1, substituting the TRPML2 subtype). An outline of the steps: (§1)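 Calcium-influx readout: Fluo4 fluorescence at 480/540 nm, normalised to positive and negative controls per plate, EC50 fitted by non-linear regression. Cells were HEK-293 Trex stable lines, channel expression induced overnight with 0.5 ug/mL doxycycline; tested at 20 micromolar down to 6 nanomolar final, half-log steps, triplicate.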

In the next assay the target is TRPML1 (Homo sapiens, UniProt Q9GZU1). In words: Fluorescent TRPML1 assay (Fluo4-AM calcium fluorescence in doxycycline-induced HEK-293 Trex cells). The method in brief: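 HEK-293 Trex cells stably carrying human TRPML1 (surface-trafficking mutant) were induced overnight with 0.5 ug/mL doxycycline, loaded with 1 micromolar Fluo4-AM, and suspended in Ringer's with 10 mM calcium. Compounds at 20 micromolar to 6 nanomolar final, half-log steps, triplicate; fluorescence 480/540 nm gave percent activity versus controls and EC50 by non-linear regression.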

In the next assay the target is T2, TRPML3 (Homo sapiens, UniProt Q8TDD5).
T2 construct: expressed in transfected cells
T2 sequence (Q8TDD5 1-553): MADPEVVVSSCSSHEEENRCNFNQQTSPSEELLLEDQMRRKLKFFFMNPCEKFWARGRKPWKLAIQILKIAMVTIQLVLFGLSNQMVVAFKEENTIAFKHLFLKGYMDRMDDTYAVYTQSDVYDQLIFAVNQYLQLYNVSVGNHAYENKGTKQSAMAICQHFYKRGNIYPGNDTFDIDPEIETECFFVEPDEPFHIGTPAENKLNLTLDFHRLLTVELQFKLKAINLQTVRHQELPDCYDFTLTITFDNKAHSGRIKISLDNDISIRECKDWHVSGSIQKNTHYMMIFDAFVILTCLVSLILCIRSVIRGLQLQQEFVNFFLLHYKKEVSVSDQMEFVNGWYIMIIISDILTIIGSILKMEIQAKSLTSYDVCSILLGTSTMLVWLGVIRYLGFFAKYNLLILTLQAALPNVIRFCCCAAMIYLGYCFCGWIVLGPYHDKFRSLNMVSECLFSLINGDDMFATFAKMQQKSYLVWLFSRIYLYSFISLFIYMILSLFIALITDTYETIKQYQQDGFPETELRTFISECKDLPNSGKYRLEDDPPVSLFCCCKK
Nature of the assay: Fluorescent TRPML3 assay (performed as for TRPML1, substituting the TRPML3 subtype). An outline of the steps: as §1

Sequence of TRPML1 (Q9GZU1 whole entry L15A/L16A/L577A/L578A, form open): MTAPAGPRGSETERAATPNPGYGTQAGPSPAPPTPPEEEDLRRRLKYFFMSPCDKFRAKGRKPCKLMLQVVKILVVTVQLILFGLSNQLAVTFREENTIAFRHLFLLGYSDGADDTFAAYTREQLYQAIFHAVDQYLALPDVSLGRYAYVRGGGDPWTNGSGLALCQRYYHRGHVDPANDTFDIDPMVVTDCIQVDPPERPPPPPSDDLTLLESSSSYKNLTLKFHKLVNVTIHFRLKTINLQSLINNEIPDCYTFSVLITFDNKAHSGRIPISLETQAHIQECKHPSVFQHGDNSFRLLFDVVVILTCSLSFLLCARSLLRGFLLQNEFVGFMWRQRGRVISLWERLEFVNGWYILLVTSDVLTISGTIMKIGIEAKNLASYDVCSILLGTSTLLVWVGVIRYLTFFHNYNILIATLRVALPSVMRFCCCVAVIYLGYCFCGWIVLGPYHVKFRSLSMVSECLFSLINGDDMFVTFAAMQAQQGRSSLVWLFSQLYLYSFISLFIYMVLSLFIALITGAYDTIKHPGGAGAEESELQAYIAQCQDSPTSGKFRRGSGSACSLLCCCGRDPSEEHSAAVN

With `COc1cccc(-n2cc(C3CC3)c3c(N4CCN(C(=O)OC(C)(C)C)C[C@@H]4C)ncnc32)c1` [Compound 202, tert-butyl (S)-4-(5-cyclopropyl-7-(3-methoxyphenyl)-7H-pyrrolo[2,3-d]pyrimidin-4-yl)-3-methylpiperazine-1-carboxylate], the EC50 at TRPML2 (fluorescent calcium assay) lay within 500 to 2000 nM; on TRPML1 (fluorescent calcium assay) it was 100 to 500 nM; on TRPML3 (fluorescent calcium assay) it was 100 to 500 nM.

On to `C[C@@H]1CN(c2nccc3c2c(C(F)F)cn3-c2cc(C#N)ccn2)[C@@H](C)CN1C(=O)OC(C)(C)C` [Compound 624, tert-butyl (2R,5S)-4-(1-(4-cyanopyridin-2-yl)-3-(difluoromethyl)-1H-pyrrolo[3,2-c]pyridin-4-yl)-2,5-dimethylpiperazine-1-carboxylate], for which the EC50 is more than 2000 nM on TRPML2, 100 to 500 nM on TRPML1 and 100 to 500 nM on TRPML3.

With `C[C@@H]1CN(c2ncnc3c2c(-c2ccccc2F)cn3-c2nccc(C#N)n2)[C@@H](C)CN1C(=O)OC(C)(C)C` [Compound 460, tert-butyl (2R,5S)-4-(7-(4-cyanopyrimidin-2-yl)-5-(2-fluorophenyl)-7H-pyrrolo[2,3-d]pyrimidin-4-yl)-2,5-dimethylpiperazine-1-carboxylate], the results for the EC50 at TRPML2 (fluorescent calcium assay), at TRPML1 (fluorescent calcium assay) and at TRPML3 (fluorescent calcium assay) were 100 to 500 nM, less than 100 nM and less than 100 nM, respectively.

On to `C[C@@H]1CN(c2ncnc3c2c(-c2ccccc2F)cn3-c2cccnc2)[C@@H](C)CN1C(=O)OC(C)(C)C` [Compound 142, tert-butyl (2R,5S)-4-(5-(2-fluorophenyl)-7-(pyridin-3-yl)-7H-pyrrolo[2,3-d]pyrimidin-4-yl)-2,5-dimethylpiperazine-1-carboxylate], for which the 50% effective concentration (EC50) is 500 to 2000 nM on TRPML2 (fluorescent calcium assay), less than 100 nM at TRPML1 (fluorescent calcium assay) and less than 100 nM on TRPML3 (fluorescent calcium assay).

For the compound `C[C@H]1CN(c2ncnc3c2c(C2CC2)nn3-c2cc(F)cc(F)c2)CCN1C(=O)OC(C)(C)C` [Compound 240, tert-Butyl (S)-4-(3-cyclopropyl-1-(3,5-difluorophenyl)-1H-pyrazolo[3,4-d]pyrimidin-4-yl)-2-methylpiperazine-1-carboxylate], the results for the EC50 on TRPML2 (fluorescent calcium assay), at TRPML1 (fluorescent calcium assay) and on TRPML3 (fluorescent calcium assay) were 500 to 2000 nM, 100 to 500 nM and 100 to 500 nM, respectively.

Consider `C[C@H]1CN(C(=O)OC(C)(C)C(F)(F)F)CCN1c1ncnc2c1c(C1CCC1)cn2-c1cc(C#N)ccn1` [Compound 436, 1,1,1-trifluoro-2-methylpropan-2-yl(S)-4-(7-(4-cyanopyridin-2-yl)-5-cyclobutyl-7H-pyrrolo[2,3-d]pyrimidin-4-yl)-3-methylpiperazine-1-carboxylate], for which the EC50 was 100 to 500 nM on TRPML2 (fluorescent calcium assay), less than 100 nM at TRPML1 (fluorescent calcium assay) and less than 100 nM at TRPML3 (fluorescent calcium assay).

Take `C[C@H]1CN(C(=O)OC(C)(C)C)CCN1c1ncnc2c1c(C1CC1)cn2-c1cccc(OC(F)(F)F)c1` [Compound 196, tert-butyl (S)-4-(5-cyclopropyl-7-(3-(trifluoromethoxy)phenyl)-7H-pyrrolo[2,3-d]pyrimidin-4-yl)-3-methylpiperazine-1-carboxylate]: the EC50 was 100 to 500 nM on TRPML2 (fluorescent calcium assay), less than 100 nM on TRPML1 (fluorescent calcium assay) and less than 100 nM on TRPML3 (fluorescent calcium assay).

For the compound `Cc1cn(-c2cc(C(F)(F)F)ccn2)c2ccnc(N3C[C@@H](C)N(C(=O)OC(C)(C)C)C[C@@H]3C)c12` [Compound 702, tert-butyl (2R,5S)-2,5-dimethyl-4-(3-methyl-1-(4-(trifluoromethyl)pyridin-2-yl)-1H-pyrrolo[3,2-c]pyridin-4-yl)piperazine-1-carboxylate], the figures for the 50% effective concentration (EC50) on TRPML2, at TRPML1 and at TRPML3 were 500 to 2000 nM, less than 100 nM and 500 to 2000 nM, respectively.

As to `CCCOc1cn(-c2cc(C#N)ccn2)c2ncnc(N3CCN(C(=O)OC(C)(C)C)C[C@@H]3C)c12` [Compound 487, tert-butyl (S)-4-(7-(4-cyanopyridin-2-yl)-5-propoxy-7H-pyrrolo[2,3-d]pyrimidin-4-yl)-3-methylpiperazine-1-carboxylate], the EC50 at TRPML2 (fluorescent calcium assay), at TRPML1 (fluorescent calcium assay) and at TRPML3 (fluorescent calcium assay) was less than 100 nM each time.

In the case of `C[C@@H]1CN(c2nccc3c2c(N2CCC2)cn3-c2cccc(F)c2)[C@@H](C)CN1C(=O)OC(C)(C)C` [Compound 638], the EC50 is 100 to 500 nM on TRPML2, less than 100 nM on TRPML1 and less than 100 nM on TRPML3.

Turning to `C[C@H]1CN(C(=O)OC(C)(C)C(F)(F)F)CCN1c1ncnc2c1c(C1CC1)cn2-c1ccc(Cl)cc1` [Compound 148, 1,1,1-trifluoro-2-methylpropan-2-yl (S)-4-(7-(4-chlorophenyl)-5-cyclopropyl-7H-pyrrolo[2,3-d]pyrimidin-4-yl)-3-methylpiperazine-1-carboxylate], the half-maximal effective concentration (EC50) at TRPML2 (fluorescent calcium assay) was 100 to 500 nM; on TRPML1 (fluorescent calcium assay), less than 100 nM; on TRPML3 (fluorescent calcium assay) it was less than 100 nM.

As for `C[C@@H]1CN(c2cn(-c3cc(C#N)ccn3)c3ncnc(N4CCN(C(=O)OC(C)(C)C)C[C@@H]4C)c23)CCO1` [Compound 417, tert-butyl (S)-4-(7-(4-cyanopyridin-2-yl)-5-((R)-2-methylmorpholino)-7H-pyrrolo[2,3-d]pyrimidin-4-yl)-3-methylpiperazine-1-carboxylate], the EC50 on TRPML2 (fluorescent calcium assay) was 100 to 500 nM; at TRPML1 (fluorescent calcium assay) it was less than 100 nM; at TRPML3 (fluorescent calcium assay) it was less than 100 nM.

In the case of `CCc1ccnc(-n2cc(C(F)(F)F)c3c(N4C[C@@H](C)N(C(=O)OC(C)(C)C)C[C@@H]4C)ncnc32)c1` [Compound 718, tert-butyl (2R,5S)-4-(7-(4-ethylpyridin-2-yl)-5-(trifluoromethyl)-7H-pyrrolo[2,3-d]pyrimidin-4-yl)-2,5-dimethylpiperazine-1-carboxylate], the half-maximal effective concentration (EC50) lay within 500 to 2000 nM on TRPML2, 100 to 500 nM on TRPML1 and 100 to 500 nM at TRPML3.

Turning to `C[C@H]1CN(C(=O)OC(C)(C)C)CCN1c1ncnc2c1c(C(F)(F)F)cn2-c1cc(C#N)ccn1` [Compound 481, tert-butyl (S)-4-(7-(4-cyanopyridin-2-yl)-5-(trifluoromethyl)-7H-pyrrolo[2,3-d]pyrimidin-4-yl)-3-methylpiperazine-1-carboxylate], the EC50 on TRPML2 (fluorescent calcium assay), at TRPML1 (fluorescent calcium assay) and at TRPML3 (fluorescent calcium assay) was less than 100 nM throughout.

Regarding `CCc1cn(-c2cc(C#N)ccn2)c2ncnc(N3C[C@@H](C)N(C(=O)OC(C)(C)C)C[C@@H]3C)c12` [Compound 479, tert-butyl (2R,5S)-4-(7-(4-cyanopyridin-2-yl)-5-ethyl-7H-pyrrolo[2,3-d]pyrimidin-4-yl)-2,5-dimethylpiperazine-1-carboxylate], the EC50 on TRPML2 (fluorescent calcium assay), at TRPML1 (fluorescent calcium assay) and at TRPML3 (fluorescent calcium assay) was less than 100 nM throughout.

Turning to `CC(C)(C)OC(=O)N1CCN(c2ncnc3c2c(-c2ccccc2F)cn3-c2cc(C#N)ccn2)CC1(C)C` [Compound 391], the EC50 at TRPML2 (fluorescent calcium assay) is 100 to 500 nM; at TRPML1 (fluorescent calcium assay) it was less than 100 nM; at TRPML3 (fluorescent calcium assay), less than 100 nM.

For `C[C@@H]1CN(c2ncnc3c2c(N2CCC[C@@H]2C)cn3-c2cccc(Cl)c2)CCN1C(=O)OC(C)(C)C` [Compound 262, tert-butyl (R)-4-(7-(3-chlorophenyl)-5-((S)-2-methylpyrrolidin-1-yl)-7H-pyrrolo[2,3-d]pyrimidin-4-yl)-2-methylpiperazine-1-carboxylate], the EC50 on TRPML2 (fluorescent calcium assay) is 500 to 2000 nM; at TRPML1 (fluorescent calcium assay) it was less than 100 nM; on TRPML3 (fluorescent calcium assay) it was 100 to 500 nM.

Turning to `CC1CC1c1cn(-c2cccc(C#N)c2)c2ncnc(N3CCN(C(=O)OC(C)(C)C)C[C@@H]3C)c12` (stereo partly drawn) [Compound 616], the EC50 at TRPML2, at TRPML1 and on TRPML3 was less than 100 nM in each case.

With `C[C@@H]1CN(c2ncnc3c2c(C(F)(F)F)cn3-c2cc(C(F)(F)F)ccn2)[C@@H](C)CN1C(=O)OC(C)(C)C` [Compound 536, tert-butyl (2R,5S)-2,5-dimethyl-4-(5-(trifluoromethyl)-7-(4-(trifluoromethyl)pyridin-2-yl)-7H-pyrrolo[2,3-d]pyrimidin-4-yl)piperazine-1-carboxylate], the EC50 on TRPML2, at TRPML1 and at TRPML3 was less than 100 nM throughout.

In general, EC50 refers to the concentration needed to bring the measured effect to its halfway point.
